By Km is commonly meant the concentration of substrate that gives half-maximal velocity.

Common to all, as to experiment: Enzyme kinetic parameters, 96-well plate assay
Common to all, as to assay type: biochemical

Assay [1] has as its target T1, plant-derived HRP (pHRP; Plant HRP Type VI-A, horseradish peroxidase) (Armoracia rusticana, UniProt P00433).
T1 sequence (P00433 31-338): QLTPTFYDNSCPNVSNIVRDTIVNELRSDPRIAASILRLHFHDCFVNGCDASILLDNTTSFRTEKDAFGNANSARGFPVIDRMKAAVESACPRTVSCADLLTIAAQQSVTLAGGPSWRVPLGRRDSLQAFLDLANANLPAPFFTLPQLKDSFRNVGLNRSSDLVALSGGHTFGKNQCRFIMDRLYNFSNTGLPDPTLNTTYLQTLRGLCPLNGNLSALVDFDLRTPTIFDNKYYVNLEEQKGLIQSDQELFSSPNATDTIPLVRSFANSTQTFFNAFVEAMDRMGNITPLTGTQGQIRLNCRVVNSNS
The following applies: Table 19; ABTS 0.1 - 7 mM, 1 mM hydrogen peroxide, 50 mM phosphate-citrate buffer pH 5, 30 °C. The method, then:
(§1) Plant HRP Type VI-A (Cat. No.: P6782) was obtained from Sigma-Aldrich (St. Louis, MO, USA). All HRP variants produced in E. coli consisted of the sequence as set forth in SEQ ID NO: 2 with the indicated mutations unless specified otherwise.
(§2) For measurements with 3,3',5,5'-tetramethylbenzidine (TMB) as substrate, the reaction mixture in each well of the 96-well plate contained a saturating hydrogen peroxide concentration of 1 mM and varying TMB concentrations (20 - 550 µM) in 50 mM phosphate-citrate buffer pH 5 in a final volume of 200 µL. Protein sample (5 µL) was mixed with 175 µl TMB-buffer mixture and the reaction was started with 20 µl hydrogen peroxide solution (10 mM). The increase in absorption was followed at 652 nm for 60s at 30 °C in a Tecan Infinite M200 PRO instrument. The kinetic parameters were calculated using Sigma Plot software (Systat Software INC., San Jose, CA, USA) and an extinction coefficient of ε652 = 39 mM^-1 cm^-1 (see Josephy, et al. "The horseradish peroxidase-catalyzed oxidation of 3, 5, 3', 5'-tetramethylbenzidine. Free radical and charge-transfer complex intermediates." Journal of Biological Chemistry 257.7 (1982): 3669-3675).
(§3) The increase in absorption was followed at 420 nm for 120 s at 30 °C in a Tecan Infinite M200 PRO instrument. The kinetic parameters were calculated using Sigma Plot software (Systat Software INC., San Jose, CA, USA) and an extinction coefficient of ε420 = 36 mM^-1 cm^-1 (see Childs and Bardsley. "The steady-state kinetics of peroxidase with 2, 2'-azino-di-(3-ethyl-benzthiazoline-6-sulphonic acid) as chromogen." Biochemical Journal 145.1 (1975): 93-103).

For assay [2], the target named is T2, horseradish peroxidase variant HRP N13D/N57S/N175S/N255D/N268D (Armoracia rusticana, UniProt P00433, N205S/N285D/N298D/N43D/N87S).
T2 sequence (P00433 31-338 N43D/N87S/N205S/N285D/N298D): T1 sequence (P00433 31-338) with N13D, N57S, N175S, N255D, N268D
The following applies: 50 mM phosphate-citrate buffer pH 5, 30 °C. The method, then:
as §1, §2, §3, §3

The target of assay [3] is T3, horseradish peroxidase variant HRP N13D/N57S/P146Q/N175S/N255D/N268D/N275K (mHRP, SEQ ID NO: 4) (Armoracia rusticana, UniProt P00433, N205S/N285D/N298D/N305K/N43D/N87S/P176Q).
T3 sequence (P00433 31-338 N43D/N87S/P176Q/N205S/N285D/N298D/N305K): T1 sequence (P00433 31-338) with N13D, N57S, P146Q, N175S, N255D, N268D, N275K
To be noted: 50 mM phosphate-citrate buffer pH 5, 30 °C; for Vmax (substrate ABTS): ABTS 0.1 - 7 mM, 1 mM hydrogen peroxide. The method, then: as §1, §2, §3, §3

The target of assay [4] is T4, wild-type HRP (rHRP, horseradish peroxidase variant C1A, SEQ ID NO: 2) (Armoracia rusticana, UniProt P00433).
T4 sequence (P00433 31-338): T1 sequence (P00433 31-338)
To be noted: Table 20; TMB 20 - 550 µM, 1 mM hydrogen peroxide, 50 mM phosphate-citrate buffer pH 5, 30 °C. The method, then: as §1, §2, §3

Where [5] appears, read: Table 17, hydrogen peroxide 0.001 - 1 mM, 10 mM ABTS.
Where [6] appears, read: Table 17, hydrogen peroxide 0.001 - 1 mM, 10 mM ABTS, read-out: Km (substrate H2O2).

Where a chain is given by its changes, count along the chain named.

For the compound `CCn1c(=NN=c2sc3cc(S(=O)(=O)O)ccc3n2CC)sc2cc(S(=O)(=O)O)ccc21` [ABTS, 2,2'-azino-bis(3-ethylbenzothiazoline-6-sulfonic acid)], the “Vmax (substrate ABTS)” value in assay [1] stood at 1285 ± 70 U/mg; in assay [2] (Table 18, ABTS 0.1 - 7 mM, 1 mM hydrogen peroxide), 1224 ± 115 U/mg; in assay [3] (Table 18) it was 1214 ± 98 U/mg; in assay [3] (Table 19), 1203 ± 96 U/mg.

As to `Cc1cc(-c2cc(C)c(N)c(C)c2)cc(C)c1N` [TMB, 3,3',5,5'-tetramethylbenzidine], in assay [4], the “Vmax (substrate TMB)” value stood at 7146 ± 355 U/mg and the “kcat (substrate TMB)” value turned out to be 4169 ± 207 s⁻¹.

`OO` [H2O2, hydrogen peroxide]: the entries for the “Vmax (substrate H2O2)” value in assay [2] (setting [5]) and in assay [3] (setting [5]) were 2003 ± 14 U/mg and 2337 ± 38 U/mg, respectively. Moreover, the “kcat (substrate H2O2)” value in assay [2] (setting [5]) came out at 1152 ± 8.3 s⁻¹; in assay [3] (setting [5]) it was 1344 ± 22 s⁻¹. The figures for the Km in assay [2] (setting [6]) and in assay [3] (setting [6]) were 174 ± 4 µM and 171 ± 9 µM, respectively.
